Molecular target: T1, X-box-binding protein 1 (Homo sapiens, UniProt P17861)
T1 sequence (P17861 whole entry): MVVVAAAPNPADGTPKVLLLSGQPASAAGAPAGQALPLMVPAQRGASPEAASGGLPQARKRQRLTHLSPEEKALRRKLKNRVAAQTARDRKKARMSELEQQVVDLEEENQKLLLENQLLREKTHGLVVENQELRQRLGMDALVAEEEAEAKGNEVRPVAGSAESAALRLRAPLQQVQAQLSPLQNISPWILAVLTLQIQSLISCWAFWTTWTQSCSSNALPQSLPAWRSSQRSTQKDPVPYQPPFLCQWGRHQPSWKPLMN
Experiment: Transactivation of XBP1 (unknown origin) transfected in rat IEC-6 cells after 48 hrs by dual luciferase reporter gene assay

EC50	Compound
220 nM	CC(=O)CC1c2c(ccc3c2OCO3)C=C2c3cc4c(cc3CCN21)OCO4 (stereo not drawn)
210 nM	C=C(C(C)=O)c1c2c3c(ccc2c(C)c2[n+]1CCc1cc4c(cc1-2)OCO4)OCO3

Compound	EC50
C1=C2c3cc4c(cc3CCN2Cc2c1ccc1c2OCO1)OCO4	2.3 nM

Source: BindingDB's records for doi:10.1021/acs.jmedchem.5b00964 (Peking Union Medical College, 2015)
